Marks after values point to notes of the source that are not given here.
Experiments:
A431 xenograft tumors [1] = assay: A431 xenograft tumor growth, Cetuximab and cisplatin combination; assay type: in vivo, male nude mice; settings: day 14
Protocol: Specifically, the test article(s) were administered on days 0, 4, 7, 11, and 14.
Tumor growth, measured as tumor volume (mm^3), was determined on days—1, 4, 7, 11 and 14 using digital calipers and calculation as described in Example 8. Tumor growth inhibition (TGI) for the treatment groups was calculated using the formula: % TGI=[1−(TB−TA)/(CB−CA)]×100; where TB is the average tumor volume (mm^3) in the treatment group at day 14, TA is the average tumor volume (mm^3) in the treatment group the day before the first treatment (day—1), CB is the average tumor volume in the vehicle only control group at day 14, and CA is the average tumor volume in the vehicle only control group the day before the first treatment (day—1) (see, e.g., Teicher B A and Andrews P A: Anticancer Drug Development, Guide: Preclinical Screening, Clinical Trials and Approval, 2nd edition.

A431 xenograft tumors [2] = assay: A431 xenograft tumor growth, Cetuximab vs. HC-Y104D and cisplatin; assay type: in vivo, male nude mice; settings: 5 mg/kg cisplatin IV twice per week, day 14
Protocol: Subcutaneous A431 xenograft tumors were established in male nude mice as described above. […] Specifically, the test article(s) were administered on days 0, 4, 7 and 11. Tumor volume (mm^3) was determined on days—1, 4, 7, 11 and 14 as described previously.

## N.N.[Cl][Pt][Cl] [cisplatin]
A431 xenograft tumors [1]; 5 mg/kg cisplatin alone
  tumor growth inhibition (TGI): 34.2%
A431 xenograft tumors [1]; Cisplatin 5 mg/kg ([…]) IV twice per week
  % Tumor Growth Inhibition: 34.2* %
A431 xenograft tumors [1]; Cisplatin […] (0.04 mg/mouse) IV twice per week
  % Tumor Growth Inhibition: 16.7%
A431 xenograft tumors [2]
  reduction in tumor growth: about 45%
